Measurements from patent US12570645B2, “Uses of p53 x-ray co-crystal structures” (PMV Pharmaceuticals, Inc., priority 2020, dated 2026).

These compounds were tested against T1, p53 Y220C (Homo sapiens, UniProt P04637, P309S/R273H/Y220C) (assay: HTRF / TR-FRET in vitro DNA binding activity assay (SC150)). Details: concentration required to increase DNA binding activity of p53 Y220C by 50%; TABLE 10.
T1 construct: made in house; host or cells: E. coli
Format: biochemical
Description: The ability of a compound of the invention to stabilize p53 Y220C and increase the DNA binding activity of p53 Y220C was measured by a homogeneous time-resolved fluorescence (HTRF) assay. Recombinant His-tagged p53 Y220C used in the HTRF assay was expressed in the bacterium E. coli. The recombinant protein was a truncation mutant containing only amino acids 94-312 of p53, which encompassed the DNA binding domain (DBD) of p53 (SEQ ID NO.: 1). The His-tagged p53 Y220C was tested for DNA binding ability with a consensus sequence of DNA (DNA duplex with a sequence of 5′-[…]-3′; SEQ ID NO.: 2). SEQ ID NO.: 2 was then conjugated with a biotin label and used in the activity assay.
The binding of the recombinant His-tagged p53 Y220C protein and the biotin-labeled consensus DNA was measured using fluorescence resonance energy transfer (FRET). For the FRET assay, the binding between the p53 mutant and the DNA sequence was measured by detecting the fluorescence of the interaction between an anti-His antibody conjugated to allophycocyanin (APC) and streptavidin conjugated to europium to detect the biotin-labeled DNA.
The test compounds were prepared as 4.5 mM stock solutions in dimethyl sulfoxide (DMSO). The compounds of the disclosure were used to test the stabilization of p53 Y220C and increase in DNA binding activity of p53 Y220C. The stock solutions were then serially diluted 3-fold in DMSO, and 1.2 μL of the diluted solutions was added to each well of a 384-well polypropylene black plate. 30 μL of a 181 nM solution of the recombinant His-tagged p53 Y220C protein and 12.1 nM of APC conjugated anti-His tag antibody in ice-cold Assay Buffer 1 (50 mM Tris-HCl, pH 7.4; 75 mM KCl; 0.75 mM DTT; and 0.2 mg/mL bovine serum albumin (BSA) was added to each well containing the test compounds.
As a background control, 30 μL of Assay Buffer 1 containing 12.1 nM of APC anti-His antibody was also added into a second set of serially-diluted compound plates. The test and control samples were spun at 1200 rpm for 1 minute and incubated at room temperature for 15 minutes. The samples were then further incubated at either 27° C. or 29° C. for 60 min. Five microliters of 311 nM biotin labeled consensus DNA (SEQ ID NO.: 2) and 13.03 nM europium-conjugated streptavidin in Assay Buffer 2 (50 mM Tris-HCl, pH 7.4; 75 mM KCl; and 0.2 mg/mL BSA) were added to each well for both the test and control plates. The plates were spun at 1200 rpm for 1 minute and incubated at room temperature for 20 minutes. The assay signals were monitored by reading excitation at 340 nm, and emission fluorescence at 615 nm and 665 nm on a plate reader.
Normalized time-resolved fluorescence resonance energy transfer (TR-FRET) assay signal (Rn) was calculated by the formula: Rn=[(A−Ba−CD)/(D−Bd)](Dc−Bd) where A was the fluorescence intensity of the sample at 665 nm; D was the fluorescence intensity of the sample at 615 nm; Ba and Bd were plate background readings at 665 nm and 615 nm, respectively; and Dc was the fluorescence intensity of 1.8 nM Eu-SA in the assay buffer at 615 nm.
The cross talk factor (C) was determined by the following formula: C═(Ac−Ba)/(DC−Bd) where Ac was the fluorescence intensity of 1.8 nM Eu-labeled anti-FLAG antibody in the assay buffer at 665 nm.
The percentage of activation of protein DNA binding in the presence of a compound of the invention compared to the absence of the compound was denoted by a SC150 value, which indicated the concentration of the compound required to increase the DNA binding activity by 50%. The SC150 values were calculated using either Prism™ or ActivityBase™.
For `COCC(O)CN1CCC(Nc2cccc3c2cc(C#CCNc2ccc(S(C)(=O)=O)cc2OC)n3CC(F)(F)F)CC1` (stereo not shown) [Compound 7, 1-{4-[(2-{3-[(4-methanesulfonyl-2-methoxyphenyl)amino]prop-1-yn-1-yl}-1-(2,2,2-trifluoroethyl)-1H-indol-4-yl)amino]piperidin-1-yl}-3-methoxypropan-2-ol], the “SC150 (μM)” value was “′ (′ = 0 μM ≤ SC150 < 0.05 μM)”. In the case of `COc1cc(S(C)(=O)=O)ccc1NCC#Cc1cc2c(N[C@H]3CC[C@H](N4CC5CC(C4)O5)CC3)cccc2n1CC(F)(F)F` [Compound 10, 2-{3-[(4-methanesulfonyl-2-methoxyphenyl)amino]prop-1-yn-1-yl}-N-[(1r,4r)-4-{6-oxa-3-azabicyclo[3.1.1]heptan-3-yl}cyclohexyl]-1-(2,2,2-trifluoroethyl)-1H-indol-4-amine], the “SC150 (μM)” value is reported as “′ (′ = 0 μM ≤ SC150 < 0.05 μM)”. For `COc1cc(S(C)(=O)=O)ccc1NCC#Cc1cc2c(N[C@@H]3CCN(C)C[C@@H]3F)cccc2n1CC(F)(F)F` [Compound 13, N-[(3S,4R)-3-fluoro-1-methylpiperidin-4-yl]-2-{3-[(4-methanesulfonyl-2-methoxyphenyl)amino]prop-1-yn-1-yl}-1-(2,2,2-trifluoroethyl)-1H-indol-4-amine], the “SC150 (μM)” value was “′ (′ = 0 μM ≤ SC150 < 0.05 μM)”. For `CNC(=O)c1ccc(NCC#Cc2cc3c(N[C@@H]4CCN(C)C[C@@H]4F)cccc3n2CC(F)(F)F)c(OC)c1` [Compound 14, 4-{[3-(4-{[(3S,4R)-3-fluoro-1-methylpiperidin-4-yl]amino}-1-(2,2,2-trifluoroethyl)-1H-indol-2-yl)prop-2-yn-1-yl]amino}-3-methoxy-N-methylbenzamide], the “SC150 (μM)” value was “′ (′ = 0 μM ≤ SC150 < 0.05 μM)”. With `COc1cc(S(C)(=O)=O)ccc1NCC#Cc1cc2c(N(C)C)cccc2n1CC(F)(F)F` [Molecule 702] the “SC150 (μM)” value was “′′′ (′′′ = 0.1 μM ≤ SC150 < 0.2 μM)”. For `COc1cc(S(C)(=O)=O)ccc1NCC#Cc1cc2c(NC(=O)NC3CCN(CCO)CC3)cccc2n1CC(F)(F)F` [Molecule 1155], the “SC150 (μM)” value was “′′′′ (′′′′ = 0.2 μM ≤ SC150 < 1 μM)”. `COc1cc(S(=O)(=O)Nc2ccon2)ccc1NCC#Cc1cc2c(NC3CCC(N(C)C)CC3)cccc2n1CC(F)(F)F` (stereo not shown) [Molecule 1188] was tested, and the “SC150 (μM)” value was “′ (′ = 0 μM ≤ SC150 < 0.05 μM)”. For `CNC(=O)c1ccc(NCC#Cc2cc3c(NC4CCC(N5CC(S(C)(=O)=O)C5)CC4)cccc3n2CC(F)(F)F)c(OC)c1` (stereo not shown) [Molecule 1330], the “SC150 (μM)” value was “′ (′ = 0 μM ≤ SC150 < 0.05 μM)”. `CN1CCC(Nc2cccc3c2cc(C#CCNc2ccc(S(C)(=O)=O)cc2O)n3CC(F)(F)F)CC1` [Molecule 1623] was tested, and the “SC150 (μM)” value was “′ (′ = 0 μM ≤ SC150 < 0.05 μM)”. With `COc1cc(S(N)(=O)=O)ccc1NCC#Cc1cc2c(NC3CCN(C[C@@H](O)CO)CC3)cccc2n1CC(F)(F)F` [Molecule 1687] the “SC150 (μM)” value was “′ (′ = 0 μM ≤ SC150 < 0.05 μM)”. `CNC(=O)c1ccc(NCC#Cc2cc3c(N[C@H]4CCN(C)C[C@H]4F)cccc3n2CC(F)(F)F)c(OC)c1` [Molecule 1921] was tested, and the “SC150 (μM)” value was “′ (′ = 0 μM ≤ SC150 < 0.05 μM)”. With `COc1cc(C(N)=O)ccc1NCC#Cc1cc2c(N[C@@H]3CCN(C)C[C@@H]3F)cccc2n1CC(F)(F)F` [Molecule 1938] the “SC150 (μM)” value was “′ (′ = 0 μM ≤ SC150 < 0.05 μM)”. With `COc1cc(C(N)=O)ccc1NCC#Cc1cc2c(N[C@H]3CCN(C)C[C@H]3F)cccc2n1CC(F)(F)F` [Molecule 1939] the “SC150 (μM)” value was “′ (′ = 0 μM ≤ SC150 < 0.05 μM)”. `COc1cc(C(N)=O)ccc1NCC#Cc1cc2c(NC3C[C@@H](C)O[C@@H](C)C3)cccc2n1CC(F)(F)F` (stereo partly shown) [Molecule 2168] was tested, and the “SC150 (μM)” value was “′′′ (′′′ = 0.1 μM ≤ SC150 < 0.2 μM)”.

Same assay, conditions: concentration required to increase DNA binding activity of p53 Y220C by 50%; TABLE 11
For `CN1CC[C@H](Nc2cccc3c2cc(-c2ccc(CNC(=O)c4ccccc4)cc2)n3CC(F)(F)F)[C@H](F)C1` [Molecule 2239], the “SC150 (μM)” value was “+ (+ = 0 μM ≤ SC150 < 2 μM)”. For `CN1CC[C@H](Nc2cccc3c2cc(-c2ccc(CNC(=O)C4CC4)cc2)n3CC(F)(F)F)[C@H](F)C1` [Molecule 2240], the “SC150 (μM)” value was “+ (+ = 0 μM ≤ SC150 < 2 μM)”.

Same assay, conditions: concentration required to increase DNA binding activity of p53 Y220C by 50%; TABLE 12
In the case of `N#Cc1cccc(-c2cc3c(NC4CCS(=O)(=O)CC4)cccc3n2CC(F)(F)F)c1` [Molecule 2204], the “SC150 (μM)” value is reported as “** (** = 0.1 μM ≤ SC150 < 0.5 μM)”. `Cc1ccc(-c2cc3c(NC4CCS(=O)(=O)CC4)cccc3n2CC(F)(F)F)c(F)c1` [Molecule 2205] was tested, and the “SC150 (μM)” value was “** (** = 0.1 μM ≤ SC150 < 0.5 μM)”. With `O=S1(=O)CCC(Nc2cccc3c2cc(-c2cccc(Cl)c2)n3CC(F)(F)F)CC1` [Molecule 2206] the “SC150 (μM)” value was “* (* = 0 μM ≤ SC150 < 0.1 μM)”.
